The assay addresses Replicase polyprotein 1ab (Severe acute respiratory syndrome coronavirus 2) (UniProt P0DTD1).

By inhibition is commonly meant the change of the read-out against control, counted positive when it falls.

SMILES strings stand for the structures.

Description: Functional biochemical assay to identify treatments for viral infectious disease that targets SARS-COV-2 nsp3 macrodomain, whereby the mechanism of action displaces an ADP-Ribose modified peptide from the binding site. Utilizing a time-resolved fluorescence method to measure binding by reading the emitted fluorescence intensity in two wavelengths.

Regarding `CN(C(=O)c1ccc(NC(=O)Nc2ccccc2)cc1)[C@@H]1CN2CCC1CC2`, the inhibition runs as follows: (Concentration 49.75 uM, Number of replicates 2.0, Standard deviation 0.826 %) -4.01%; (Concentration 99.5 uM, Number of replicates 2.0, Standard deviation 1.597 %) 2.77%. With `FC(F)(F)c1nc(NC[C@H]2CCCO2)c2nc[nH]c2n1`, for the setting “Concentration 50.0 uM, Number of replicates 2.0, Standard deviation 2.867 %”, the inhibition was determined as 2.5%.

For the compound `Cn1ncc2c(NCc3ncccc3O)ncnc21`, the inhibition (Concentration 50.0 uM, Number of replicates 2.0, Standard deviation 16.275 %) stood at 3.89%. As to `O=C(Nc1cnc2[nH]ncc2c1)c1cccc(-c2noc(C(F)(F)F)n2)c1`, the inhibition runs as follows: (Concentration 50.0 uM, Number of replicates 2.0, Standard deviation 7.077 %) -0.675%; (Concentration 100.0 uM, Number of replicates 2.0, Standard deviation 3.401 %) -1.62%.

`Cc1ccc(C(=O)N2CCC(c3ccn4ncc(C(=O)N5CCCCC5)c4c3)CC2)c(=O)[nH]1`: the inhibition by setting is: (Concentration 49.75 uM, Number of replicates 2.0, Standard deviation 1.294 %) 3.31%; (Concentration 99.5 uM, Number of replicates 2.0, Standard deviation 2.376 %) 3.66%. `O=C(c1cccnc1O)N1CCC(c2ccn3ncc(C(=O)N4CCCCC4)c3c2)CC1`: the inhibition (Concentration 49.75 uM, Number of replicates 2.0, Standard deviation 3.415 %) is -7.04% and the inhibition (Concentration 99.5 uM, Number of replicates 2.0, Standard deviation 3.017 %) is -3.94%. As for `CC(C)NC(=O)[C@@H]1CCCN(c2ncnc3[nH]ccc23)C1`, the inhibition (Concentration 50.0 uM, Number of replicates 2.0, Standard deviation 0.005 %) was determined as 1.78%. For `O=C(CCN(Cc1cccc(Cl)c1)C(=O)[C@H]1C[C@H](O)C1)N1CCNCC1`, the inhibition was -2.13% (Concentration 49.75 uM, Number of replicates 2.0, Standard deviation 2.648 %) and -3.77% (Concentration 99.5 uM, Number of replicates 2.0, Standard deviation 5.781 %). In the case of `c1nc(-c2nc(-c3cc(C4CC4)[nH]n3)no2)c2cc[nH]c2n1`, the inhibition is, setting by setting: (Concentration 50.0 uM, Number of replicates 2.0, Standard deviation 1.585 %) -4.8%; (Concentration 50.0 uM, Number of replicates 2.0, Standard deviation 2.643 %) -2.81%; (Concentration 100.0 uM, Number of replicates 2.0, Standard deviation […]) -2.45%.

In the case of `O=C(N[C@H](Cn1cnc2cc(F)c(F)cc21)C(=O)O)c1ncnc2[nH]ccc12`, the inhibition is, setting by setting: (Concentration 49.75 uM, Number of replicates 2.0, Standard deviation 5.178 %) -2.04%; (Concentration 99.5 uM, Number of replicates 2.0, Standard deviation 0.435 %) 8.39%. Regarding `O=C(O)c1ccsc1C(=O)N1CCC(c2ccn3ncc(C(=O)N4CCCCC4)c3c2)CC1`, the inhibition reads like this: (Concentration 49.75 uM, Number of replicates 2.0, Standard deviation 4.674 %) 45%; (Concentration 99.5 uM, Number of replicates 2.0, Standard deviation 0.647 %) 61.2%.

On to `O=C(CCN(Cc1cccc(Cl)c1)C(=O)C1(O)CCCC1)N1CCNCC1`, for which the inhibition by setting is: (Concentration 49.75 uM, Number of replicates 2.0, Standard deviation 1.82 %) -1.21%; (Concentration 99.5 uM, Number of replicates 2.0, Standard deviation 0.971 %) -1.78%. Turning to `O=C1CC[C@H](COC(=O)c2ncnc3[nH]ccc23)CCN1`, the inhibition (Concentration 50.0 uM, Number of replicates 2.0, Standard deviation 3.465 %) was -7.87%. Consider `O=C(CCN(Cc1cccc(Cl)c1)C(=O)C1(F)CCCCC1)N1CCNCC1`, for which the inhibition (Concentration 49.75 uM, Number of replicates 2.0, Standard deviation 2.579 %) was -3.58% and the inhibition (Concentration 99.5 uM, Number of replicates 2.0, Standard deviation 1.426 %) worked out at 0.185%.

For the compound `CN1CCC[C@@H]1CNC(=O)c1cnn2ccc(C3CCN(C(=O)c4ccccc4)CC3)cc12`, the inhibition (Concentration 49.75 uM, Number of replicates 2.0, Standard deviation 1.011 %) is -4.43% and the inhibition (Concentration 99.5 uM, Number of replicates 2.0, Standard deviation 3.797 %) turned out to be 1.5%. In the case of `c1cc(-c2nnc(Sc3ncnc4[nH]ccc34)[nH]2)ccn1`, the inhibition came to 10.7% (Concentration 50.0 uM, Number of replicates 2.0, Standard deviation 4.573 %); 5.47% (Concentration 50.0 uM, Number of replicates 2.0, Standard deviation 8.715 %); 3.32% (Concentration 100.0 uM, Number of replicates 2.0, Standard deviation 31.914 %). Take `c1cnc([C@@H]2CCN(c3ncnc4[nH]ccc34)C2)cn1`: the inhibition (Concentration 50.0 uM, Number of replicates 2.0, Standard deviation 2.663 %) was -1.7%. Turning to `O=C(c1c[nH]nn1)N1CCC(c2ccn3ncc(C(=O)N4CCCCC4)c3c2)CC1`, the inhibition was determined as 14.7% (Concentration 49.75 uM, Number of replicates 2.0, Standard deviation 0.286 %) and 25.6% (Concentration 99.5 uM, Number of replicates 2.0, Standard deviation 4.61 %).

As to `COc1cc(OC)cc(C(=O)N(CCC(=O)N2CCNCC2)Cc2cccc(Cl)c2)c1`, the inhibition (Concentration 50.0 uM, Number of replicates 2.0, Standard deviation 1.533 %) is -4.53%. As to `CC(C)[C@@H](Nc1ncnc2[nH]ccc12)C(N)=O`, the inhibition reads like this: (Concentration 49.75 uM, Number of replicates 2.0, Standard deviation 3.584 %) 64.4%; (Concentration 99.5 uM, Number of replicates 2.0, Standard deviation 5.819 %) 77.7%.

Regarding `CSc1ccccc1NC(=O)c1ncnc2[nH]ccc12`, for the setting “Concentration 50.0 uM, Number of replicates 2.0, Standard deviation 3.62 %”, the inhibition is -5.8%. In the case of `Cn1nc(C(=O)N2CCC(c3ccn4ncc(C(=O)N5CCCCC5)c4c3)CC2)cc1C(=O)O`, the inhibition came to 42.7% (Concentration 49.75 uM, Number of replicates 2.0, Standard deviation 1.938 %) and 59.7% (Concentration 99.5 uM, Number of replicates 2.0, Standard deviation 2.395 %). For `Cc1cccc(Cl)c1S(=O)(=O)Nc1cnc2[nH]ncc2c1`, under “Concentration 50.0 uM, Number of replicates 2.0, Standard deviation 1.912 %”, the inhibition is -0.254%. Regarding `CCn1cc(CNC(=O)c2ccc(NC(=O)Nc3ccccc3)cc2)cn1`, the inhibition (Concentration 49.75 uM, Number of replicates 2.0, Standard deviation 1.767 %) is -1.76% and the inhibition (Concentration 99.5 uM, Number of replicates 2.0, Standard deviation 3.239 %) was determined as 3.8%. As to `c1nc(N2CC[C@@H](n3cncn3)C2)c2cc[nH]c2n1`, the inhibition (Concentration 50.0 uM, Number of replicates 2.0, Standard deviation 1.464 %) was -1.54%. As to `C=CCn1c(Cc2ccccc2)nnc1Sc1ncnc2[nH]ccc12`, the inhibition (Concentration 50.0 uM, Number of replicates 2.0, Standard deviation 4.634 %) was -7.71%. Consider `O=C(Nc1ccccc1)Nc1ccc(C(=O)Nc2cnnc(Cl)c2)cc1`, for which the inhibition was -1.72% (Concentration 49.75 uM, Number of replicates 2.0, Standard deviation 1.096 %) and -0.19% (Concentration 99.5 uM, Number of replicates 2.0, Standard deviation 2.694 %). Turning to `O=C(NCc1nc(-c2ccco2)n[nH]1)c1cc2nccn2c(=O)[nH]1`, the inhibition (Concentration 50.0 uM, Number of replicates 2.0, Standard deviation 0.515 %) was -5.42%.

In the case of `O=C(NCCn1cncn1)c1cnn2ccc(C3CCN(C(=O)c4ccccc4)CC3)cc12`, the inhibition reads like this: (Concentration 49.75 uM, Number of replicates 2.0, Standard deviation 1.365 %) -3.7%; (Concentration 99.5 uM, Number of replicates 2.0, Standard deviation 1.7 %) -2.57%. `O=C(O)c1cscc1C(=O)N1CCC(c2ccn3ncc(C(=O)N4CCCCC4)c3c2)CC1`: the inhibition is, setting by setting: (Concentration 50.0 uM, Number of replicates 2.0, Standard deviation 2.729 %) 47.7%; (Concentration 100.0 uM, Number of replicates 2.0, Standard deviation 0.311 %) 66.7%. Take `CNC[C@@H]1CCCN1C(=O)c1cnn2ccc(C3CCN(C(=O)c4ccccc4)CC3)cc12`: the inhibition (Concentration 49.75 uM, Number of replicates 2.0, Standard deviation 1.186 %) is -1.47% and the inhibition (Concentration 99.5 uM, Number of replicates 2.0, Standard deviation 2.864 %) was -2.2%. In the case of `CC[C@@H]1C[C@@H](C(=O)Nc2ncnc3[nH]c(C)c(C)c23)CCO1`, the inhibition (Concentration 50.0 uM, Number of replicates 2.0, Standard deviation 1.684 %) stood at 12.1%. In the case of `O=C(NCc1ccc(Cl)cn1)c1ncnc2[nH]ccc12`, the inhibition runs as follows: (Concentration 50.0 uM, Number of replicates 2.0, Standard deviation 1.293 %) -4.96%; (Concentration 100.0 uM, Number of replicates 2.0, Standard deviation 0.093 %) -2.57%.

Consider `O=C(c1cnc2[nH]ncc2c1)N1CCC(c2ccn3ncc(C(=O)N4CCCCC4)c3c2)CC1`, for which the inhibition stood at 15.8% (Concentration 49.75 uM, Number of replicates 2.0, Standard deviation 0.466 %) and 34.4% (Concentration 99.5 uM, Number of replicates 2.0, Standard deviation 6.369 %). As for `Cc1ccc2ccccc2c1-c1ncnc2[nH]ccc12`, the inhibition (Concentration 49.75 uM, Number of replicates 2.0, Standard deviation 3.409 %) is -5.32% and the inhibition (Concentration 99.5 uM, Number of replicates 2.0, Standard deviation 3.055 %) was -9.1%.

These data come from ChEMBL document CHEMBL5442379, “ASAP - SARS-CoV-2 nsp3 macrodomain single point” (2024).
